# Measurements taken from PubChem BioAssay AID1918936 (Molecular Pharmacology Branch, DTP, NCI, 2023).
# Several values for one entry are separate records, joined by “and”; a condition that tells them apart may be missing. Identical values can stand only once.
# Tested on: 349418-098-R-PDC complex spheroid viability
# Test: Anticancer human tumor 349418-098-R-PDC patient-derived lung adenocarcinoma cell line growth inhibition
# Details: for viability, T/C: stronger effect = lower value
# Method in brief: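 Drug combinations with the LSD1 inhibitor iadademstat tested on tumor cells co-cultured as spheroids with endothelial cells and mesenchymal stem cells. Concentrations descended in half-log increments from clinical Cmax or 10 microM.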
# [1] = curve of first compound, second compound 0.1 µM
# [2] = curve of first compound, second compound 0.316 µM
# [3] = curve of first compound, second compound 1 µM
# [4] = curve of first compound, second compound 3.16 µM
# [5] = curve of first compound, second compound 10 µM
# [6] = second compound 0.1 µM, first compound 0.0316 µM
# [7] = second compound 0.1 µM, first compound 0.1 µM
# [8] = second compound 0.1 µM, first compound 0.316 µM
# [9] = second compound 0.1 µM, first compound 1 µM
# [10] = second compound 0.1 µM, first compound 3.16 µM
# [11] = second compound 0.1 µM, first compound 10 µM
# [12] = second compound 0.316 µM, first compound 0.0316 µM
# [13] = second compound 0.316 µM, first compound 0.1 µM
# [14] = second compound 0.316 µM, first compound 0.316 µM
# [15] = second compound 0.316 µM, first compound 1 µM
# [16] = second compound 0.316 µM, first compound 3.16 µM
# [17] = second compound 0.316 µM, first compound 10 µM
# [18] = second compound 1 µM, first compound 0.0316 µM
# [19] = second compound 1 µM, first compound 0.1 µM
# [20] = second compound 1 µM, first compound 0.316 µM
# [21] = second compound 1 µM, first compound 1 µM
# [22] = second compound 1 µM, first compound 3.16 µM
# [23] = second compound 1 µM, first compound 10 µM
# [24] = second compound 3.16 µM, first compound 0.0316 µM
# [25] = second compound 3.16 µM, first compound 0.1 µM
# [26] = second compound 3.16 µM, first compound 0.316 µM
# [27] = second compound 3.16 µM, first compound 1 µM
# [28] = second compound 3.16 µM, first compound 3.16 µM
# [29] = second compound 3.16 µM, first compound 10 µM
# [30] = second compound 10 µM, first compound 0.0316 µM
# [31] = second compound 10 µM, first compound 0.1 µM
# [32] = second compound 10 µM, first compound 0.316 µM
# [33] = second compound 10 µM, first compound 1 µM
# [34] = second compound 10 µM, first compound 3.16 µM
# [35] = second compound 10 µM, first compound 10 µM
# [36] = second compound 0.1 µM, first compound 0.00316 µM
# [37] = second compound 0.1 µM, first compound 0.01 µM
# [38] = second compound 0.316 µM, first compound 0.00316 µM
# [39] = second compound 0.316 µM, first compound 0.01 µM
# [40] = second compound 1 µM, first compound 0.00316 µM
# [41] = second compound 1 µM, first compound 0.01 µM
# [42] = second compound 3.16 µM, first compound 0.00316 µM
# [43] = second compound 3.16 µM, first compound 0.01 µM
# [44] = second compound 10 µM, first compound 0.00316 µM
# [45] = second compound 10 µM, first compound 0.01 µM
# 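Further: spheroids exposed to agents for seven days before readout.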
# 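Wherever viability, T/C is given: 100% = DMSO vehicle control wells.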
smiles,measurement,setting,value
COc1ccc([C@@H](O)c2cc(-c3ncnc4cc(N5CCOCC5)ccc34)c(F)cc2Cl)nn1 + NC1CCC(NC2CC2c2ccccc2)CC1,IC50,[1],0.423 µM
same,IC50,[2],0.471 µM
same,IC50,[3],0.468 µM
same,IC50,[4],0.52 µM
same,IC50,[5],0.299 µM
same,"viability, T/C",[6],102%
same,"viability, T/C",[7],109%
same,"viability, T/C",[8],52.1%
same,"viability, T/C",[9],30.2%
same,"viability, T/C",[10],8.02%
same,"viability, T/C",[11],5.61%
same,"viability, T/C",[12],112%
same,"viability, T/C",[13],95.1%
same,"viability, T/C",[14],63.3%
same,"viability, T/C",[15],26.6%
same,"viability, T/C",[16],8.83%
same,"viability, T/C",[17],6.71%
same,"viability, T/C",[18],122%
same,"viability, T/C",[19],102%
same,"viability, T/C",[20],60.6%
same,"viability, T/C",[21],28.4%
same,"viability, T/C",[22],10.5%
same,"viability, T/C",[23],6.33%
same,"viability, T/C",[24],102%
same,"viability, T/C",[25],102%
same,"viability, T/C",[26],66.4%
same,"viability, T/C",[27],27%
same,"viability, T/C",[28],10.9%
same,"viability, T/C",[29],5.88%
same,"viability, T/C",[30],98.1%
same,"viability, T/C",[31],78.8%
same,"viability, T/C",[32],48.2%
same,"viability, T/C",[33],23.5%
same,"viability, T/C",[34],9.1%
same,"viability, T/C",[35],5.47%
NS(=O)(=O)OCC1CC(n2ccc3c(NC4CCc5ccccc54)ncnc32)CC1O (configuration not stated),"viability, T/C",compound 0.00949 µM,97.7% and 104%
same,"viability, T/C",compound 0.03 µM,98% and 68.5%
same,"viability, T/C",compound 0.0949 µM,33.6% and 29.1%
same,"viability, T/C",compound 0.3 µM,18.3% and 11%
same,"viability, T/C",compound 0.949 µM,7.34% and 5.1%
same,"viability, T/C",compound 3 µM,4.71% and 4.35%
same,IC50,curve of compound,0.0706 µM and 0.0516 µM
Nc1ccn(C2OC(CO)C(O)C2(F)F)c(=O)n1 (configuration not stated) + NC1CCC(NC2CC2c2ccccc2)CC1,IC50,[1],< 0.000949 µM
same,IC50,[2],< 0.000949 µM
same,IC50,[3],< 0.000949 µM
same,IC50,[4],< 0.000949 µM
same,IC50,[5],< 0.000949 µM
same,"viability, T/C","second compound 0.1 µM, first compound 0.000949 µM",4.87%
same,"viability, T/C","second compound 0.1 µM, first compound 0.003 µM",4.56%
same,"viability, T/C","second compound 0.1 µM, first compound 0.00949 µM",4.21%
same,"viability, T/C","second compound 0.1 µM, first compound 0.03 µM",3.79%
same,"viability, T/C","second compound 0.1 µM, first compound 0.0949 µM",4%
same,"viability, T/C","second compound 0.1 µM, first compound 0.3 µM",3.98%
same,"viability, T/C","second compound 0.316 µM, first compound 0.000949 µM",4.61%
same,"viability, T/C","second compound 0.316 µM, first compound 0.003 µM",4.85%
same,"viability, T/C","second compound 0.316 µM, first compound 0.00949 µM",4.32%
same,"viability, T/C","second compound 0.316 µM, first compound 0.03 µM",4.15%
same,"viability, T/C","second compound 0.316 µM, first compound 0.0949 µM",4.03%
same,"viability, T/C","second compound 0.316 µM, first compound 0.3 µM",3.47%
same,"viability, T/C","second compound 1 µM, first compound 0.000949 µM",4.81%
same,"viability, T/C","second compound 1 µM, first compound 0.003 µM",4.98%
same,"viability, T/C","second compound 1 µM, first compound 0.00949 µM",5.25%
same,"viability, T/C","second compound 1 µM, first compound 0.03 µM",4.25%
same,"viability, T/C","second compound 1 µM, first compound 0.0949 µM",3.86%
same,"viability, T/C","second compound 1 µM, first compound 0.3 µM",3.77%
same,"viability, T/C","second compound 3.16 µM, first compound 0.000949 µM",5.14%
same,"viability, T/C","second compound 3.16 µM, first compound 0.003 µM",4.79%
same,"viability, T/C","second compound 3.16 µM, first compound 0.00949 µM",5.19%
same,"viability, T/C","second compound 3.16 µM, first compound 0.03 µM",4.55%
same,"viability, T/C","second compound 3.16 µM, first compound 0.0949 µM",4.08%
same,"viability, T/C","second compound 3.16 µM, first compound 0.3 µM",3.79%
same,"viability, T/C","second compound 10 µM, first compound 0.000949 µM",4.89%
same,"viability, T/C","second compound 10 µM, first compound 0.003 µM",5.31%
same,"viability, T/C","second compound 10 µM, first compound 0.00949 µM",4.83%
same,"viability, T/C","second compound 10 µM, first compound 0.03 µM",4.8%
same,"viability, T/C","second compound 10 µM, first compound 0.0949 µM",4.86%
same,"viability, T/C","second compound 10 µM, first compound 0.3 µM",3.79%
COc1cc(Nc2ncc3c(n2)-c2ccc(Cl)cc2C(c2c(F)cccc2OC)=NC3)ccc1C(=O)O + NC1CCC(NC2CC2c2ccccc2)CC1,IC50,[1],0.0212 µM
same,IC50,[2],0.0181 µM
same,IC50,[3],0.028 µM
same,IC50,[4],0.0158 µM
same,IC50,[5],0.0212 µM
same,"viability, T/C",[36],99.2%
same,"viability, T/C",[37],64.7%
same,"viability, T/C",[6],41.8%
same,"viability, T/C",[7],38.5%
same,"viability, T/C",[8],32.1%
same,"viability, T/C",[9],37.4%
same,"viability, T/C",[38],87.3%
same,"viability, T/C",[39],63.1%
same,"viability, T/C",[12],37.7%
same,"viability, T/C",[13],38.9%
same,"viability, T/C",[14],39.7%
same,"viability, T/C",[15],32.5%
same,"viability, T/C",[40],85%
same,"viability, T/C",[41],62.8%
same,"viability, T/C",[18],43.6%
same,"viability, T/C",[19],47.3%
same,"viability, T/C",[20],40.9%
same,"viability, T/C",[21],34.5%
same,"viability, T/C",[42],99.5%
same,"viability, T/C",[43],58.9%
same,"viability, T/C",[24],35.6%
same,"viability, T/C",[25],40.4%
same,"viability, T/C",[26],31.9%
same,"viability, T/C",[27],37.7%
same,"viability, T/C",[44],75.3%
same,"viability, T/C",[45],54.2%
same,"viability, T/C",[30],48.2%
same,"viability, T/C",[31],41.6%
same,"viability, T/C",[32],34%
same,"viability, T/C",[33],34.7%
Cn1ncnc1C1c2n[nH]c(=O)c3cc(F)cc(c23)NC1c1ccc(F)cc1 (configuration not stated) + NC1CC1c1ccc(-c2cccc(O)c2)cc1,IC50,[1],> 0.1 µM
same,IC50,[2],> 0.1 µM
same,IC50,[3],> 0.1 µM
same,IC50,[4],> 0.1 µM
same,IC50,[5],> 0.1 µM
same,"viability, T/C","second compound 0.1 µM, first compound 0.000316 µM",115%
same,"viability, T/C","second compound 0.1 µM, first compound 0.001 µM",105%
same,"viability, T/C",[36],112%
same,"viability, T/C",[37],105%
same,"viability, T/C",[6],101%
same,"viability, T/C",[7],102%
same,"viability, T/C","second compound 0.316 µM, first compound 0.000316 µM",112%
same,"viability, T/C","second compound 0.316 µM, first compound 0.001 µM",110%
same,"viability, T/C",[38],111%
same,"viability, T/C",[39],104%
same,"viability, T/C",[12],106%
same,"viability, T/C",[13],101%
same,"viability, T/C","second compound 1 µM, first compound 0.000316 µM",119%
same,"viability, T/C","second compound 1 µM, first compound 0.001 µM",112%
same,"viability, T/C",[40],106%
same,"viability, T/C",[41],107%
same,"viability, T/C",[18],108%
same,"viability, T/C",[19],101%
same,"viability, T/C","second compound 3.16 µM, first compound 0.000316 µM",114%
same,"viability, T/C","second compound 3.16 µM, first compound 0.001 µM",117%
same,"viability, T/C",[42],105%
same,"viability, T/C",[43],115%
same,"viability, T/C",[24],103%
same,"viability, T/C",[25],103%
same,"viability, T/C","second compound 10 µM, first compound 0.000316 µM",99.1%
same,"viability, T/C","second compound 10 µM, first compound 0.001 µM",100%
same,"viability, T/C",[44],98.9%
same,"viability, T/C",[45],96.9%
same,"viability, T/C",[30],90.9%
same,"viability, T/C",[31],86.8%
O=C(c1cc(Cc2n[nH]c(=O)c3ccccc23)ccc1F)N1CCN(C(=O)C2CC2)CC1 + NC1CCC(NC2CC2c2ccccc2)CC1,IC50,[1],4.25 µM
same,IC50,[2],5.9 µM
same,IC50,[3],4.18 µM
same,IC50,[4],4.91 µM
same,IC50,[5],2.52 µM
same,"viability, T/C",[6],93.9%
same,"viability, T/C",[7],88.8%
same,"viability, T/C",[8],82.6%
same,"viability, T/C",[9],77.8%
same,"viability, T/C",[10],51.7%
same,"viability, T/C",[11],40.6%
same,"viability, T/C",[12],93.8%
same,"viability, T/C",[13],87.3%
same,"viability, T/C",[14],82.4%
same,"viability, T/C",[15],77.2%
same,"viability, T/C",[16],59.5%
same,"viability, T/C",[17],41.1%
same,"viability, T/C",[18],106%
same,"viability, T/C",[19],98.1%
same,"viability, T/C",[20],79.4%
same,"viability, T/C",[21],75.4%
same,"viability, T/C",[22],62.2%
same,"viability, T/C",[23],28.9%
same,"viability, T/C",[24],92.4%
same,"viability, T/C",[25],89%
same,"viability, T/C",[26],87%
same,"viability, T/C",[27],69.6%
same,"viability, T/C",[28],64.6%
same,"viability, T/C",[29],32.4%
same,"viability, T/C",[30],89.5%
same,"viability, T/C",[31],68.7%
same,"viability, T/C",[32],64.8%
same,"viability, T/C",[33],62.4%
same,"viability, T/C",[34],48.7%
same,"viability, T/C",[35],38.2%
